Measured values reported in patent US5723109A, “Use of salicyclic acid derivatives for depigmenting the skin” (L'Oreal, priority 1995, dated 1998).

System: tyrosinase from human melanocytes
Experiment: dopa-oxidase activity of tyrosinase from human melanocytes
Format: cell-based
Experimental: Human melanocytes were prepared and cultured and then introduced into media containing different concentrations of 5-(n-octanoyl)salicylic acid (0.5 μM, 1 μM, 2 μM and 5 μM).
After three days, the melanocytes were "trypsinizated" in a 0.05%/0.02% trypsin/EDTA mixture in a phosphate buffer (50 mM at pH 6.8), washed three times in phosphate buffer containing 1% (w/v) of TRITON X-100 and subjected to ultrasound. After centrifuging, samples were withdrawn and mixed with 5 mM L-DOPA in phosphate buffer. The tyrosinase activity was evaluated by spectrophotometry. The increase in the absorbance at 475 nm is due to the formation of dopachrome from 5 mM DOPA being measured. The absorbance was read on a microplate reader at 25° C. for 60 min.
The activity of the cellular tyrosinase was measured with respect to a calibration range prepared with commercially available tyrosinase.

decrease of dopa-oxidase activity of the tyrosinase from the melanocytes (concentration of 5 μM, three days): more particularly pronounced
dopa-oxidase activity of the tyrosinase from the melanocytes (percentage of activity with respect to the starting activity, FIG. 1) (human melanocytes cultured three days with 0.5 μM, 1 μM, 2 μM and 5 μM, 5 mM L-DOPA, absorbance at 475 nm): significantly decreases
Compound: CCCCCCCC(=O)c1ccc(O)c(C(=O)O)c1 [5-(n-octanoyl)salicylic acid]
